The test system of one assay is SK-Mel-2. The experiment in a line: Migration assay (Boyden chambers) in SK-Mel-2. Conditions: for cell migration: 50 μM agonist. The format is cell-based, human. How it is done: (§1) Cell Culture—SK-Mel-2 and SK-Mel-24 (ATCC) cell lines were cultured in Eagle's Minimum Essential Medium supplemented with 10% fetal bovine serum at 37° C./5% CO2. HEMA-LP human melanocytes (Cascade Biologics) were maintained in Medium 254 with Human Melanocyte Growth Supplement (Cascade Biologics).
(§2) Adenoviral Overexpression—Recombinant adenoviruses containing human LacZ, Epac1 or Epac2 were constructed (Adeno-X Expression System, Clontech). Human Epac1 and Epac2 cDNA were kindly provided by Dr. J. L Bos (University Medical Center, Utrecht, Netherlands). Adenovirus of PKA alpha subunit was purchased from Vector Biolabs. The corresponding encoding sequence was cloned in topShuttle2 (Clontech) to obtain a mammalian expression cassette, which was then excised and ligated into BD Adeno-X Viral DNA. The recombinant vector was introduced into human embryonic kidney cells (HEK293) to recover infectious adenovirus. Viruses were propagated in HEK293 cells, and purified by BD Adeno-X Virus Purification Kits. Viral titer was determined by Adeno-X Rapid Titer Kit (Clontech). As a control study, adenovirus vector harboring LacZ was used at the same MOI. Cells were infected with adenovirus for 24 hand subjected to each experiment. In some experiments (For HS production and NDST-1 expression, FIGS. 5B, 5C, 5D, 5E, 5F and 5G), cells were further incubated for 48 h in medium without adenovirus followed by each experiment.
(§3) Migration assay—Migration assay was performed using methods previously known in the art using the Boyden chambers (pore size 8 μm, BD Biosciences). The upper chamber's polycarbonate insert film parts were coated by 75 μl fibronectin (50 μg/ml in PBS, Biosciences). Cultured cells were detached and the number of the cells was adjusted to 1×10^3 cells/μl of media. One-hundred micro liter of the cell suspension was applied to the center of the upper chamber and then attached to the lower chamber. Thereafter, the cells were incubated in CO2 incubator at 37° C. for 3 h unless specified. After fixation with 10% formalin neutral solution, cells were stained with Diff-Quick kit (Dade Behring). After mechanical removing of the cells on the upper surface of the membrane with a cotton swab, cells that migrated onto the lower surface of the membrane were counted. Pictures were taken with a microscope followed by counting migrated cells with Image J software in randomly chosen 10 fields.
Transfection of siRNA—Epac1 siRNA (Ambion), syndecan-2 siRNA (Ambion) and NDST-1 siRNA (QIAGEN) were transfected into subconfluent SK-Mel-2 cells using Lipofectamine 2000 (Invitrogen). For Epac1, a pool of double-stranded siRNAs containing equal parts of the following antisense sequence was used: 5′-AUCACUGUAUACCGGUUCC-3′ (SEQ ID NO: 1). For syndecan-2, a pool of double-stranded siRNAs containing equal parts of the following antisense sequence was used: 5′-CUCUGGACUCUCUACAUCC-3′ (SEQ ID NO: 2). For NDST-1, a pool of double-stranded siRNAs containing equal parts of the following antisense sequence was used: 5′-UUUAUUAGCAGUUAGUUCG-3′ (SEQ ID NO: 3). The corresponding non-targeting siRNA Silencer negative Control #2 siRNA (AM4613, Ambion) was used as a negative control. Twenty-four hours later, the medium containing siRNA was changed to fresh medium and incubated for 72 h. When siRNA transfection was combined with adenoviral infection, siRNA transfection followed the adenoviral infection.

A further assay has as its system SK-Mel-24. The experiment in a line: Migration assay (Boyden chambers) in SK-Mel-24. The format is cell-based, human. The note with it: FIG. 1A; for cell migration: 50 μM agonist. How it is done:
as §1, §2
as §3, with “Thereafter, the cells were incubated in CO2 incubator at 37° C. for 3 h unless specified. After fixation with 10% formalin neutral solution, cells were stained with Diff-Quick kit (Dade Behring).” left out, “Pictures were taken with a microscope followed by counting migrated cells with Image J software in randomly chosen 10 fields.” left out

The test system of assay [1] is HEMA-LP human melanocytes. The experiment in a line: Migration assay (Boyden chambers) in HEMA-LP melanocytes. Format: cell-based. The note with it: HEMA-LP melanocyte; 50 μM agonist; FIG. 1A. How it is done: as §1
as §2, with “As a control study, adenovirus vector harboring LacZ was used at the same MOI. Cells were infected with adenovirus for 24 hand subjected to each experiment. In some experiments (For HS production and NDST-1 expression, FIGS. 5B, 5C, 5D, 5E, 5F and 5G), cells were further incubated for 48 h in medium without adenovirus followed by each experiment.” left out
Migration assay—Migration assay was performed using methods previously known in the art using the Boyden chambers (pore size 8 μm, BD Biosciences). […] After mechanical removing of the cells on the upper surface of the membrane with a cotton swab, cells that migrated onto the lower surface of the membrane were counted. […]

Assay [2] deals with Cloudman S91 melanoma cell line. The experiment in a line: Migration assay in Cloudman S91 melanoma cells. Format: cell-based, mouse. The note with it: 50 μM 8-pMeOPT, FIG. 6B. Here is the method:
as §3
Lung colonization assay—To examine the metastatic potential of melanoma cells, lung colonization assay was performed using methods known in the art. […] Two weeks after the injection, the number of metastatic colonies on the surface of the lungs were counted under a dissection microscope. […]

The test system of assay [3] is syndecan-2 colocalization with lipid rafts. The experiment in a line: Immunocytochemical staining of syndecan-2 and lipid rafts in SK-Mel-2. The format is cell-based, human. Conditions: for colocalization of syndecan-2 with lipid rafts: SK-Mel-2, 50 μM 8-pMeOPT for 15 min; for Epac1-induced syndecan-2 colocalization with lipid rafts: SK-Mel-2 overexpressing Epac1, NCD 10 μM for 3 h, FIG. 3D. How it is done:
(§4) Immunocytochemistry—Immunocytochemistry was performed using methods previously known in the art. SK-Mel-2 on glass coverslips were fixed, washed and permeabilized with 0.02% Triton-X followed by incubation with primary and secondary antibodies for 30 min at room temperature. Alexa Fluor 488- and 594-conjugated goat anti-rabbit or anti-mouse antibodies (Molecular Probes) were used. The pictures were taken with a digital camera operated on a Nikon Eclipse TE200 or a confocal microscope (Zeiss Axiovert 100M). For mounting media, Prolong-Gold antifade with DAPI (Molecular Probes) was used.

Assay [4] has as its system syndecan-2 in lipid rafts-rich fraction. The experiment in a line: Immunoblot for syndecan-2 in lipid rafts-rich fraction (sucrose density gradient) of SK-Mel-2. The format is cell-based, human. Conditions: SK-Mel-2 overexpressing Epac1; 10 μM NCD for 3 h; FIG. 3E. How it is done:
Western Blotting—Western blot analysis was performed using methods previously known in the art. Cells were lysed and sonicated in lysis buffer containing 25 mM Tris-HCl (pH7.5), 150 mM NaCl, 5 mM MgCl2, 1% NP-40, 1 mM DTT, 5% glycerol, phosphatase inhibitor (Sigma), protease inhibitor cocktail (Sigma) and 1 mM NaF. Equal amounts of protein (20 μg) were subjected to SDS-PAGE. After protein separation by electrophoresis, samples were transferred to Millipore Immobilon-P membrane and immunoblotting with antibodies was performed. Signal intensities of the bands were quantified with Image J software (NIH). Sucrose density gradient centrifugation—Lipid rafts-enriched membrane fractions were prepared using methods previously known in the art. Briefly, SK-Mel-2 cells were homogenated in 2 ml of 500 mM sodium carbonate (pH 11.0) with protease inhibitors (1 μg/ml leupeptin, 0.1 mM PMSF and 50 U/ml egg white trypsin inhibitor) and lysed by sonication. The lysate was then adjusted to 45% sucrose by mixing with 2 ml of 90% sucrose prepared in MBS buffer (25 mM 2-Morpholinoethanesulfonic acid (MES), pH 6.5, […]) and placed at the bottom of 5% and 35% discontinuous sucrose gradient (in MBS buffer containing 100 mM sodium carbonate) for an overnight ultra-centrifugation (260,000 g). Fractions were removed sequentially from the top and designated as fractions 1 through 13. […]
In general terms: A western blot detects proteins with antibodies after separation by electrophoresis.

A further assay relates to tubulin. The experiment in a line: Immunocytochemical staining with tubulin in SK-Mel-2. Conditions: SK-Mel-2 overexpressing Epac1; NCD 10 μM for 3 h; FIG. 3C. Format: cell-based, human. How it is done:
as §4

“Also recorded” adds a separate entry of the source.

For the compound `COc1ccc(Sc2nc3c(N)ncnc3n2[C@@H]2O[C@@H]3COP(=O)(O)O[C@H]3[C@H]2OC)cc1` [8-pMeOPT, 8-pMeOPT-2-O-Me-cAMP], the “cell migration, combination with overexpression of Epacs over Epac overexpression alone” value is on record as “further increased cell migration” in the assay on SK-Mel-2 (SK-Mel-2, 50 μM 8-pMeOPT, FIG. 1A) and “such increase was not observed” in the assay on SK-Mel-24 (50 μM 8-pMeOPT). The cell migration entry with SK-Mel-2 (SK-Mel-2, FIG. 1A) is on record as “increased melanoma cell migration”; with SK-Mel-24, “increased melanoma cell migration”; in assay [1], “not in a melanocyte cell line”. Also, in assay [2], the migration entry is “increased migration”. Further, the “colocalization of syndecan-2 with lipid rafts” value in assay [3] (FIG. 2A) is “increased colocalization of syndecan-2 with lipid rafts”; in assay [3] (FIG. 2A, listed as Epac agonist), “increased co-localization of syndecan-2 with lipid rafts”.
Regarding `[Na+].[O-][Cl+2]([O-])[O-]` [sodium chlorate], the Epac-induced migration result in the assay with SK-Mel-2 (sodium chlorate, data not shown) is “decreased Epac-induced migration”.
With cyclodextrin [CXD], in the assay with SK-Mel-2 (SK-Mel-2 overexpressing Epac1, 10 μg/ml CXD, FIG. 2C), the Epac1 overexpression-induced migration entry was “inhibited; also recorded: decreased Epac1 overexpression-induced migration”. For the same compound, the basal migration entry with SK-Mel-2 (SK-Mel-2 overexpressing LacZ, 10 μg/ml CXD, assay 8 h, FIG. 2C) is listed as “inhibited”. Besides, the “Epac1-overexpression-induced colocalization of syndecan-2 with lipid rafts” value in assay [3] (SK-Mel-2 with Epac1 adenovirus, 10 μg/ml CXD, FIG. 2A) was “decreased Epac-induced syndecan-2 colocalization with lipid-rafts; also recorded: decreased Epac1-overexpression-induced colocalization of syndecan-2 with lipid rafts”.
In the case of `COC(=O)Nc1nc2ccc(C(=O)c3cccs3)cc2[nH]1` [NCD, Nocodazole], in the assay with SK-Mel-2 (SK-Mel-2 overexpressing Epac1, NCD 10 μM, FIG. 3F), the Epac1-induced migration result is on record as “inhibited Epac-induced migration; also recorded: inhibited Epac1-induced migration”. The “Epac1-induced syndecan-2 colocalization with lipid rafts” value in assay [3] was “decreased Epac1-induced syndecan-2 colocalization with lipid rafts”; in assay [3] (listed as Nocodazole) it was “decreased the colocalization of syndecan-2 with lipid rafts”. Also, the “syndecan-2 expression in lipid raft-rich fraction” value in assay [4] was “decreased expression of sydecan-2 in the lipid rafts-rich fraction; also recorded: decreased syndecan-2 expression in lipid raft-rich fraction”. In the assay on tubulin, the “Epac1-induced fine tubulin network formation” value is listed as “network formation was inhibited”.
For `CCCC(=O)Nc1ncnc2c1ncn2[C@@H]1O[C@@H]2COP(=O)(O)O[C@H]2[C@H]1O` [6-MB-cAMP, N6-Monobutyryladenosine-3′,5′-cyclic monophosphate], the cell migration result with SK-Mel-2 (SK-Mel-2, FIG. 1A) is listed as “did not increase cell migration; also recorded: neither 6-MB-cAMP nor PKA overexpression, increased melanoma cell migration”; in the assay with SK-Mel-24, “did not increase cell migration; also recorded: neither 6-MB-cAMP nor PKA overexpression, increased melanoma cell migration”; in assay [1], “did not increase cell migration”.

The values above are taken from patent US20110060029A1, “METHOD OF TREATING CANCER BY MODULATING EPAC” (priority 2009, published 2011).
